The values below come from patent US10195284B2, “Compositions and methods for controlled localized delivery of bone forming therapeutic agents” (University of Rochester, priority 2013, dated 2019).

Values joined by “and” are separate entries in the source; they are usually repeats but may differ in a detail not shown here. Equal values may be shown once. Read-outs that look alike come from different tables or passages of the source. Ends that are not written are not given here.

Series [1] has as its target T1, tartrate-resistant acid phosphatase (TRAP) (Homo sapiens, UniProt P13686).
T1 sequence (P13686 22-325): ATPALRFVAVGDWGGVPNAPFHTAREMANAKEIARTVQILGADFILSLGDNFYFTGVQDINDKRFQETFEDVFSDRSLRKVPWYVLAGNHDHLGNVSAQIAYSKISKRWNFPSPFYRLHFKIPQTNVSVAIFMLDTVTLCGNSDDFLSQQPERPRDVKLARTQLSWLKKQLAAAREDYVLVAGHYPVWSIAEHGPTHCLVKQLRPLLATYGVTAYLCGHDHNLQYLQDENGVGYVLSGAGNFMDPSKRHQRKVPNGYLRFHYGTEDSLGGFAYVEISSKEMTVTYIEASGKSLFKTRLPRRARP
As to the kind of experiment: Surface plasmon resonance (SPR) affinity of peptides and peptide-functionalized polymers for TRAP, binding-curve fit. How it is done: (§1) Surface plasmon resonance (SPR) is used to assess the affinity of peptides for TRAP. Series S Sensor CM5 Chips are functionalized with TRAP via 1-ethyl-3-(3-dimethylaminopropyl) carbodiimide (EDC)/N-hydroxysuccinimide (NHS) chemistry. Briefly, the chips, which have a carboxymethylated dextran functionality, are activated through the introduction of NHS and EDC. After activation, TRAP protein, at 30 μg/mL in sodium acetate (pH=5), is introduced to the surface. Ethanolamine-hydrochloric acid is used to quench unreacted carboxysuccinimide groups. Peptides are dissolved in running buffer of PBS with 0.005% Tween20. Peptides are analyzed in duplicate at different concentrations. Surface regeneration is achieved using a combination of 1 and 2 M NaCl and 1-50 mM NaOH solutions as necessary.
In SPR, the binding of any molecules to the surface of the sensor chips results in a change in the angle of incident light reflection, allowing highly-sensitive detection of miniscule amounts of ligand binding to the surface. Target affinity can be determined by introducing increasing concentrations of the ligand to the surface. Higher concentrations of samples elicited larger responses. The binding response was measured and plotted against concentration (FIG. 4), allowing for a fitting of the data by a binding curve. From this fitting, values such as KD can be determined. Through this technique, the affinity of TBP and SCP was analyzed. […] While not wishing to be bound by any particular theory, a possible, but improbable, cause for difference in affinity is the inclusion of the glycine residue on the carboxylic end of the synthesized peptide used herein. Despite this addition, the order of the original sequence is preserved, and glycine is a small, uncharged and nonpolar amino acid. […] In prior studies using phage display, five copies of the peptide are present and exposed (Sheu et al., 2002, Journal of Bone and Mineral Research, 17(5):915-922). Therefore, part of the higher affinity seen in the phage display experiments could be due to the multivalent nature of the peptide on the phage.
Quantitative analyses of peptide and polymer affinities were performed using SPR. […] The binding of any molecules to the surface of the sensor chips results in a change in the angle of incident light reflection, allowing highly-sensitive detection of miniscule amounts of ligand binding to the surface. Target affinity can be determined by introduction of increasing concentrations of the molecule to the surface (FIG. 38A and FIG. 38B). Typically higher concentrations of samples elicited larger responses, with a larger response from polymers at lower concentrations in comparison to the TBP alone. […] Furthermore, polymer samples required the application of regeneration buffers, ranging from a mild buffer of 500 mM NaCl to a harsher buffer of 5 mM NaOH, to return the signal to previous levels. The binding response is measured and plotted against concentration, allowing for a fitting of the data by a binding curve. From this fitting, values such as the dissociation constant (KD) value can be determined. Through this technique, the affinity of peptides and peptide-functionalized polymers were analyzed. […] However, inclusion of peptide functionalities results in substantial increases in TRAP affinities (KD˜7.1-21 μM). […] While not wishing to be bound by any particular theory, a possible, but improbable, cause for difference in affinity is the inclusion of the glycine residue on the carboxylic end of the synthesized peptide used herein. Despite this addition the order of the original sequence is preserved and glycine is a small, uncharged and nonpolar amino acid. […] In prior studies using phage display, five copies of the peptide are present and exposed (Sheu et al., 2002, Journal of Bone and Mineral Research, 17(5): 915-922). Therefore part of the higher affinity seen in the phage display experiments could be due to the multivalent nature of the peptide on the phage. […]
On the technique in general: Surface plasmon resonance follows binding to a sensor surface in real time, without labels.

Series [2] can be described thus: Bone resorption pit binding of fluorescently labeled peptides, confocal imaging. Also noted: species or system human. As to conditions: fluorescently labeled peptide, overnight incubation. As for the experimental part:
Equal concentrations of fluorescently labeled TBP and SCP are prepared in 1× phosphate-buffered saline (PBS). Bone wafers are cut from cortical bone obtained from the femur of a human donor cadaver and incubated in peptide solutions overnight, washed twice with 1×PBS, and then visualized via confocal imaging. Stacked sections are compressed into 2D images to allow for qualitative analysis as in FIG. 3A through FIG. 3D. […] Qualitatively, no binding of SCP is detected (FIG. 3D).

The subject of series [3] is Mouse osteoblasts (MC3T3E1). The experiment in a line: Cytocompatibility of peptide-functionalized polymers, Picogreen DNA assay. The series is classed as cell-based. As to conditions: 0.1 mM and 10 mM, 7 days, normalized to media alone. As for the experimental part:
Mouse osteoblasts (MC3T3E1) were maintained in alpha minimum essential media (α-MEM, Gibco), containing 10% fetal bovine serum (FBS, Invitrogen) and 1% penicillin-streptomycin-fungizone at 37° C. and 5% CO2. Cells were utilized at passage 5. To assess the cytocompatibility of peptide-functionalized polymers, cells were seeded in a 48 well plates at 10,000 cells/well and allowed to adhere overnight. Cells were treated with media alone or with peptide or peptide-functionalized polymers (0.1 mM and 10 mM) for 7 days, with media exchanges every two days. These concentrations employed are far higher than expected to be necessary for future uses and allowed for isolation of the maximum tolerated doses in vitro. After seven days of exposure, cells were washed, lysed by sonication, and analyzed for DNA concentration using the Picogreen Assay (Invitrogen). Results were normalized to cells treated with media alone.

Another series addresses T2, TRAP protein (Homo sapiens, UniProt P13686).
T2 sequence (P13686 22-325): T1 sequence (P13686 22-325)
As to the kind of experiment: SPR affinity of peptide-functionalized polymers for TRAP, initial rate analysis of sensorgrams. The series is classed as binding. As to conditions: for SPR binding response to TRAP: sensorgrams. As for the experimental part:
as §1, with “peptide-functionalized polymers” for “peptides”, “Polymers” for “Peptides”, “1-10” for “a combination of 1 and 2 M NaCl and 1-50”, “necessary. […] Sensorgram data (FIG. 22) are exported from the SPR evaluation software after smoothing data of injection events and analyzed. Response units (RU) are converted into concentrations for rate analysis using the equation: S[M]=RU/60000 MW” for “necessary.”
Where S is the concentration of polymer bound to the TRAP-functionalized surface and MW is the molecular weight of the polymer. The binding rates of polymers to TRAP are determined in the initial linear portion of association, within two seconds of the start of injection. The reciprocals of binding rates are plotted against the reciprocals of polymer concentrations to obtain a linear relationship, generalized in the equation: Vi^−1=KDSi^−1Vm^−1Vm^−1
Where Vi is the binding rate for each i concentration of polymer and Vm is the maximum binding rate of polymer to TRAP. This relationship identifies the KD for each polymer (Table 4). Only TBP-functionalized polymers show affinity for TRAP (FIG. 22), as control (SCP-functionalized and PEG) polymer show no positive binding response (FIG. 23A through FIG. 23C).

For series [4] the following is noted: Vougogiannopoulou et al., 2008; cited from earlier work.
For series [5], the system named is β-catenin and ALP in osteoblasts. The experiment in a line: BIO treatment of osteoblasts, β-catenin levels and ALP production. It is filed as cell-based. As to conditions: 24 hours treatment. How it is done: Data represents mean±standard deviation for 3 trials. *p<0.05 versus control, #p<0.05 versus 2 μM BIO (n=5).
Several BIO-releasing polymers that are the correct molecular weight to enhance circulation time and avoid renal clearance have been successfully synthesized. […] Finally, released BIO biological activity is confirmed versus the free, unconjugated molecule and rescue of β-catenin signaling in osteoblasts is verified.

Series [6] can be described thus: Bone targeting of fluorescently labeled polymer therapeutics on osteoclast-resorbed bone wafers. It is filed as binding, bovine. How it is done: Bovine cortical bone is cut into 5-mm square, 0.5-mm thick wafers using a low speed saw with a diamond wafering blade. Bone wafers are boiled in ddH2O for 15 minutes, placed in 96-well plates, sterilized in 70% ethanol for half an hour on each side, washed thrice in 1×PBS, and incubated in alpha minimum essential medium (α-MEM) for at least 1 hour at 37° C. before cell seeding.
Monocytes are freshly isolated from the spleens of mice, filtered twice with a 40 μm cell strainer, collected via centrifugation (5 minutes, 1000 rpm), and re-suspended in sterile filtered mouse red blood cell lysis buffer for 10 minutes at room temperature. After neutralizing lysis buffer with 1×PBS, monocytes are collected via centrifugation and washed in α-MEM containing 10% fetal bovine serum, 1% penicillin-streptomycin-fungizone, 1% GlutaMAX, and 1% non-essential amino acids before re-suspension in medium containing 100 ng mL^−1 M-CSF conditioned medium (Takeshita et al., 2000, J Bone Miner Res 15:1477). Monocytes are seeded in 96-well plates on the tissue culture surface or on prepared bovine cortical bone wafers at 2×10^5 cells well^−1 (1×10^6 cells mL^−1). After 3 days of incubation at 37° C. and 5% CO2, medium is supplemented with 1 ng mL^−1 receptor activator of nuclear factor κB ligand (RANKL) to induce osteoclast differentiation. […]

Series [7] concerns areas with cathepsin K and osteoclast activity at calvarial defect. As to the kind of experiment: Co-localization of polymers to actively remodeling bone, two-photon microscopy of cranial window defect. It is filed as in vivo, mice. As to conditions: 5 mg kg^−1 intraperitoneal, imaged thirty minutes later. As for the experimental part: A thinned-skull cranial window is produced in mice as previously described (Yang et al., 2010, Nat Protoc 5:201). Briefly, a 500-μm diameter defect is made in the skull of mice and covered with a glass coverslip. The night before imaging, mice are injected intraperitoneal with 100 μL reconstituted cathepsin K probe in 1×PBS, prepared according to the manufacturer's protocol. At times of 3 and 8 days post-procedure, 5 mg kg^−1 of fluorescently-labeled pTBP, pSCP, or PEG in saline is injected intraperitoneal and imaged thirty minutes later using two-photon microscopy (Olympus Fluoview). Cathepsin K, a cysteine protease, is secreted by osteoclasts; therefore, TRAP is expected to be present in areas with cathepsin K activity. […] Bone drilling defects have been used previously to investigate osteoclast activity, with osteoclast accumulation at the defect evident from positive TRAP staining (Tanaka et al., 2010, J Biomed Mater Res, 93A(2): 469-474). […] Other live imaging modalities and sections of sacrificed mice are used to track biodistribution to other organs. Since the amino acid sequence of human, mouse, and rat TRAP is 89-94% homologous (Lamp and Drexler, 2000, Leukemia Lymphoma, 39(5-6): 477-484), it is probable that TBP-functionalized polymer therapeutic affinity to TRAP in mice can be translated into humans.

Setting [8] is: TRAP-functionalized CM5 chip, n = 2, Ave. ± StDev, read-out: KD.

As to H-TPLSYLKGLVTVG [TBP], the Kd in series [1] (binding-curve fit, read-out: KD for TRAP) was ~200 µM and ~700 µM; in series [1] (read-out: affinity for TRAP measured with SPR), 795 µM. Moreover, the “binding to bone resorption pits” value in series [2] is “specific binding”.

For “10% peptide-functionalized polymer (TPLSYLKGLVTVG)”, the “cytocompatibility / cytotoxic effects” value in series [3] is given as “worst cytocompatibility of all polymers tested”. In addition, the Kd in series [1] (setting [8]) came to 12.7 µM.

On to 10% TBP (TPLSYLKGLVTVG), for which the “SPR binding response to TRAP” value with TRAP protein is “positive response”.

For the molecule “scrambled control peptide, VPVGTLSYLKLTG (SEQ ID NO: 2) (VPVGTLSYLKLTG-OH; also: methacrylamide introduced on amine end for polymer incorporation) [SCP, reference compound]”, the “affinity for TRAP measured with SPR” value in series [1] is “no affinity”. Besides, the “KD for TRAP” value in series [1] (binding-curve fit) is recorded as “did not enable fitting of a binding curve or calculations of affinity”. For the same molecule, the “binding to bone resorption pits” value in series [2] is reported as “no binding”.

In the case of “20% peptide-functionalized polymer (TPLSYLKGLVTVG)”, in series [1] (setting [8]), the Kd stood at 7.5 µM.

For “20% SCP (VPVGTLSYLKLTG) [reference compound]”, the “SPR binding response to TRAP” value with TRAP protein is listed as “negative responses”.

For 20% TBP (TPLSYLKGLVTVG), in the series with TRAP protein (initial rate analysis of SPR sensorgrams), the Kd came to 70 µM.

Regarding `O=C1Nc2cc(Br)ccc2/C1=C1/Nc2ccccc2/C1=N\O` [BIO, 6-bromoindirubin-3′-oxime], the water solubility result in series [4] is recorded as “poor water solubility”. In addition, in series [5] (analyzed 7-days after treatment), the ALP production entry was “increased”. Moreover, the β-catenin levels result in series [5] (just after treatment) is “increased”.

Turning to “10% SCP (VPVGTLSYLKLTG) [reference compound]”, the “SPR binding response to TRAP” value in the series with TRAP protein was “negative responses”.

Take “TBP-functionalized polymer therapeutics (TPLSYLKGLVTVG)”: the “localization to resorption pits” value in series [6] (resorbed bone wafers, fluorescently labeled) is “localize to resorption pits”. Moreover, the “affinity for untreated bone” value in series [6] (untreated bone wafers) is listed as “No affinity”. For the same molecule, in series [7], the “colocalization with cathepsin K and osteoclast activity” value was “colocalize to areas with cathepsin K and osteoclast activity”.
